Results as given in patent publication US12629374B2, “Antimalarial agents” (Merck Sharp & Dohme LLC, priority 2020, dated 2026).
Like-named read-outs stand apart in the source and are kept apart here.

Tested on: ring stage parasites
Assay: Parasite growth potency assay, 72 hours, LDH readout
Format: cell-based
Settings: parasite growth measured by LDH assay after 72 hours at 37° C., 0.7% rings, 2% haematocrit, read-out: EC50
How it was run: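 Parasite growth was quantified by LDH assay after a −80 °C freeze-thaw. Before that, compound was incubated for 72 h at 37 °C under humidified gas with ring-stage cultures adjusted to 0.7% parasitemia and 2% haematocrit in serum- and albumax-supplemented RPMI-Hepes.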

| SMILES | EC50 (72 h) | EC50 |
| --- | --- | --- |
| C#CCC[C@H](c1cccc(C(=O)NC2CC3(CCC3)Oc3ccccc32)c1)N1C(=N)NC(CC)(CC)CC1=O (stereo in doubt) [Example 211A, [4,4-diethyl-6-oxo-1-[(1R)-1-[3-[[(4S)-spiro[chromane-2,1′-cyclobutane]-4-yl]carbamoyl]phenyl]pent-4-ynyl]hexahydropyrimidin-2-ylidene]ammonium; 2,2,2-trifluoroacetate] | 25 nM | – |
| C#CCC[C@@H](c1cccc(C(=O)NC2CC(C)(C)Oc3ccccc32)c1)N1C(=N)NC(CC)(CC)CC1=O (stereo partly drawn) [Example 214A, 3-[(1S)-1-(4,4-diethyl-2-imino-6-oxo-hexahydropyrimidin-1-yl)pent-4-ynyl]-N-(2,2-dimethylchroman-4-yl)benzamide] | 26.3 nM | – |
| CCC[C@H](c1cncc(C(=O)N[C@@H]2c3ccccc3C[C@H]2O)c1)N1C(=N)NC(CC)(CC)CC1=O [Example 57, [4,4-diethyl-1-[1-[5-[[(1R,2R)-2-hydroxyindan-1-yl]carbamoyl]pyridin-1-ium-3-yl]butyl]-6-oxo-hexahydropyrimidin-2-ylidene]ammonium; 2,2,2-trifluoroacetate] | 0.6 nM | – |
| CCC1(CC)CC(=O)N([C@H](CCOC)c2cccc(C(=O)N[C@H]3c4cc(F)ccc4OC(C)(C)[C@@H]3O)c2)C(=N)N1 [Example 165A, [4,4-diethyl-1-[(1R)-1-[3-[[(3R,4S)-6-fluoro-3-hydroxy-2,2-dimethyl-chroman-4-yl]carbamoyl]phenyl]-3-methoxy-propyl]-6-oxo-hexahydropyrimidin-2-ylidene]ammonium; 2,2,2-trifluoroacetate] | 41.4 nM | – |
| CCC1(CC)CC(=O)N([C@H](CCOC)c2cccc(C(=O)N[C@@H]3c4ccccc4OC(C)(C)[C@H]3O)c2)C(=N)N1 (stereo in doubt) [Example 128, [4,4-diethyl-1-[1-[3-[(3-hydroxy-2,2-dimethyl-chroman-4-yl)carbamoyl]phenyl]-3-methoxy-propyl]-6-oxo-hexahydropyrimidin-2-ylidene]ammonium; 2,2,2-trifluoroacetate] | 1.1 nM | – |
| COCC[C@H](c1cncc(C(=O)N[C@H]2CC(C)(C)Oc3ccccc32)c1)N1C(=N)N[C@](C)(C(C)C)CC1=O [Example 104, [(4S)-1-[1-[5-[[(4S)-2,2-dimethylchroman-4-yl]carbamoyl]pyridin-1-ium-3-yl]-3-methoxy-propyl]-4-isopropyl-4-methyl-6-oxo-hexahydropyrimidin-2-ylidene]ammonium; 2,2,2-trifluoroacetate] | 0.9 nM | – |
| CCC1(CC)CC(=O)N([C@H](CCOC)c2cccc(C(=O)N[C@@H]3c4ccccc4OC3(C)C)c2)C(=N)N1 [Example 181A, [1-[(1R)-1-[3-[(2,2-dimethyl-3H-benzofuran-3-yl)carbamoyl]phenyl]-3-methoxy-propyl]-4,4-diethyl-6-oxo-hexahydropyrimidin-2-ylidene]ammonium; 2,2,2-trifluoroacetate] | 3 nM | – |
| CC1(C)CC(=O)N(Cc2cccc(C(=O)N[C@@H]3c4cc(F)ccc4OC(C)(C)[C@H]3O)c2)C(=N)N1 [Example 182, [1-[[3-[[(3S,4R)-6-fluoro-3-hydroxy-2,2-dimethyl-chroman-4-yl]carbamoyl]phenyl]methyl]-4,4-dimethyl-6-oxo-hexahydropyrimidin-2-ylidene]ammonium; 2,2,2-trifluoroacetate] | 5.4 nM | – |
| CCC1(CC)CC(=O)N([C@@H](c2cncc(F)c2)c2cccc(C(=O)N[C@H]3CC(C)(C)Oc4ccccc43)c2)C(=N)N1 [Example 99B, [1-[[3-[[(4S)-2,2-dimethylchroman-4-yl]carbamoyl]phenyl]-(5-fluoropyridin-1-ium-3-yl)methyl]-4,4-diethyl-6-oxo-hexahydropyrimidin-2-ylidene]ammonium; 2,2,2-trifluoroacetate] | 2 nM | – |
| CCC1(CC)CC(=O)N(C(CC(OC)C(F)(F)F)c2cccc(C(=O)N[C@@H]3c4ccccc4C[C@H]3O)c2)C(=N)N1 (single isomer, unassigned) [Example 238D] | – | 2.25 nM |
| CCC1(CC)CC(=O)N([C@H](CCOC)c2cccc(C(=O)N[C@H]3c4ccccc4C4(CC4)[C@@H]3O)c2)C(=N)N1 [Example 191B, [4,4-diethyl-1-[(1R)-1-[3-[(2′-hydroxyspiro[cyclopropane-1,3′-indane]-1′-yl)carbamoyl]phenyl]-3-methoxy-propyl]-6-oxo-hexahydropyrimidin-2-ylidene]ammonium; 2,2,2-trifluoroacetate] | 90.2 nM | – |
| CCC1(CC)CC(=O)N([C@@H](c2cncc(F)c2)c2cccc(C(=O)N[C@H]3CCOc4ccccc43)c2)C(=N)N1 [Example 106B, [1-[[3-[[(4S)-chroman-4-yl]carbamoyl]phenyl]-(5-fluoropyridin-1-ium-3-yl)methyl]-4,4-diethyl-6-oxo-hexahydropyrimidin-2-ylidene]ammonium; 2,2,2-trifluoroacetate] | 3.1 nM | – |
| CCC1(CC)CC(=O)N(Cc2cccc(C(=O)N[C@H]3CC(C)(C)Oc4ccc(F)cc43)c2)C(=N)N1 (stereo in doubt) [Example 88, [4,4-diethyl-1-[[3-[(6-fluoro-2,2-dimethyl-chroman-4-yl)carbamoyl]phenyl]methyl]-6-oxo-hexahydropyrimidin-2-ylidene]ammonium; 2,2,2-trifluoroacetate] | 0.4 nM | – |
| COCC[C@H](c1cccc(C(=O)N[C@@H]2c3ccccc3C3(CC3)[C@H]2O)c1)N1C(=N)NC(C)(C)CC1=O [Example 167, [1-[(1R)-1-[3-[(2′-hydroxyspiro[cyclopropane-1,3′-indane]-1′-yl)carbamoyl]phenyl]-3-methoxy-propyl]-4,4-dimethyl-6-oxo-hexahydropyrimidin-2-ylidene]ammonium; 2,2,2-trifluoroacetate] | 3.1 nM | – |
| CC[C@H](c1cccc(C(=O)N[C@@H]2c3ccccc3OC[C@@]2(C)O)c1)N1C(=N)NC(CC)(CC)CC1=O [Example 206A, 3-[1-(4,4-diethyl-2-imino-6-oxo-hexahydropyrimidin-1-yl)propyl]-N-[(3S,4R)-3-hydroxy-3-methyl-chroman-4-yl]benzamide] | 1 nM | – |
| CCC1(CC)CC(=O)N(Cc2cc(C#N)cc(C(=O)N[C@H]3CC(C)(C)Oc4ccccc43)c2)C(=N)N1 (stereo in doubt) [Example 89B, [1-[[3-cyano-5-[(2,2-dimethylchroman-4-yl)carbamoyl]phenyl]methyl]-4,4-diethyl-6-oxo-hexahydropyrimidin-2-ylidene]ammonium; 2,2,2-trifluoroacetate] | 1.6 nM | – |
| CCC[C@H](c1cccc(C(=O)N[C@H]2CCOc3ccccc32)c1)N1C(=N)NC(CC)(CC)CC1=O [Example 13A, [1-[1-[3-[[(4S)-chroman-4-yl]carbamoyl]phenyl]butyl]-4,4-diethyl-6-oxo-hexahydropyrimidin-2-ylidene]ammonium; 2,2,2-trifluoroacetate] | 0.3 nM | – |
| CCC1(CC)CC(=O)N(Cc2cccc(C(=O)N[C@@H]3c4ccccc4C[C@H]3O)c2)C(=N)N1 [Example 15, [4,4-diethyl-1-[[3-[[(1R,2R)-2-hydroxyindan-1-yl]carbamoyl]phenyl]methyl]-6-oxo-hexahydropyrimidin-2-ylidene]ammonium; 2,2,2-trifluoroacetate] | 2.6 nM | – |
